# Tests used:
# ceramide = test: epidermal lipid (total ceramide) in human skin (TLC); format: in vivo; conditions: 5 wt % test material, twice every day, non-treated group = 100%
# Protocol: In order to evaluate the effect of the ginseng berry extract of Example 1 on an increase in lipid synthesis in human skin, 0.5 wt % of Carbopol ETD 2020, 0.45% of TEA, 5 wt % of the test material and the balance of deionized water were used. On 12 adult men and women, a region corresponding to the diameter of a polypropylene conical tube was marked on the arm, and then was applied with 20 μl of each of control groups and the ginseng berry extract of Example 1 twice every day. The subjects were divided into two groups, and the production of lipid in the applied region was analyzed in the following manner by extracting lipid at day 3 and day 11. Specifically, the arm was washed with service water, and then subjected to tape stripping once with Scotch 810 Magic tape. Then, 1 ml of a mixture of cyclohexane/ethanol (4:1) was added to the tape using a cut 50-ml polypropylene conical tube as a reservoir and stirred for about 1 minute, and then the solution was transferred into a fresh tube. Then, the tape was treated with 1 ml of a mixture of cyclohexane/ethanol (1:1) in the same manner as described above, and the solution was collected in the tube. […]
# After the TLC plate was developed, the size of each band was measured at a wavelength of 570 nm using TLC scanner-II (CAMAG; densitometer).
# human skin = test: whitening effect on UVB-darkened human skin (colorimeter); format: in vivo; conditions: UVB-darkened upper arm, 10 weeks of application
# [1] = system: C57BL/6 mouse melanocytes (Mel-Ab cells); test: melanin production inhibition in mouse melanocytes; format: cell-based; conditions: positive control, concentration not given
# 5-alpha-reductase = 5-alpha-reductase activity, testosterone to dihydrotestosterone; format: biochemical, rat; conditions: 100 μg extract per reaction
# Protocol: Adult SD (Spraque-Dawley) male rats (7-8-week old) were sacrificed with diethyl ether, the abdominal prostate was extracted, and the connective tissue was removed. The prostate tissue was finely cut in buffer (0.32 M sucrose, 0.1 mM dithiothreitol and 20 mM sodium acetate), and was then suspended with a stirrer. The suspension was centrifuged, and the supernatant was collected. 5-alpha-reductase was partially purified from the supernatant in order to the activity thereof.
# A portion of the above-collected supernatant was taken and placed in buffer containing 0.2 M monobasic acid and 0.2 M dibasic acid. Then, the solution was allowed to react with a ^3H-bound substrate (testosterone), and the production of the product dihydrotestosterone was measured.
# The reaction solution contained 1 mM dithiothreitol, 40 mM sodium phosphate (pH 6.5), 50 μM NADPH, [1,2,6,7-^3H] testosterone/testosterone ([…]), 0.8 mg enzyme suspension and 565 μl protein.
# The ginseng berry extract of Example 1 was dissolved in 10% ethanol and added in an amount of 100 μg extract/10 μl 10% ethanol per reaction. […]
# The plastic sheet was dried in air, and then a VAS system was used to measure of isotopes. Specifically, the dried plastic sheet together with an X-ray film was placed in a VAS cassette, and after 1 week, the amounts of the testosterone and dihydrotestosterone isotopes remaining on the film were measured.
# [2] = system: lipogenesis in sebaceous glands; test: lipogenesis inhibition in hamster ear tissue (C14 uptake); format: cell-based; conditions: 0.01% test material solution, 6 hours, average of 4 hamsters
# Protocol: The degree of lipogenesis in sebaceous glands was evaluated by evaluating the inhibition of lipogenesis through the quantification of carbon uptake required for lipogenesis.
# Specifically, the ear tissue of hamsters, having abundant sebaceous glands, was biopsied, and the degree of lipogenesis was evaluated by comparatively quantifying the control group and the test materials using a radioactivity meter in C14-labeled media for 6 hours. In the test material groups, the right ear tissue of hamsters was used and 0.01% test material solutions were added to the media, and in the control group, the left ear tissue of hamsters was used and 0.01% saline was added to the media.
# Meanwhile, the inhibition (%) in Table 17 was calculated according to the following equation 4 and was expressed as the average of 4 hamsters. […] [Equation 4]
# Human normal fibroblasts = test: inhibition of oxidative DNA damage, single cell gel electrophoresis (comet assay); format: cell-based; conditions: H2O2 10^-3 M; test material 10 ppm
# Protocol: Human normal fibroblasts were cultured for 24 hr and treated with varying concentrations of each of the ginseng berry extract of Example 1 and vitamin E. After 12 hr, the cells were treated with the positive control H2O2 (final concentration: 10^−3M), and then stained by electrophoresis. […] Herein, the image analyzer KOMET 3.1 (Kinetic Imaging, England) was used to analyze the tail length (μm) resulting from the digestion of DNA in each of 25 cells, and the analysis results are shown in Table 3 below.
molecule,measurement,setting,value
"OCC(O)CO [Glycerin, glycerin]","production of ceramide, After 3 days of treatment",ceramide,102%
same,"production of ceramide, After 11 days of treatment",ceramide,94%
"Oc1ccc(O)cc1 [Hydroquinone, hydroquinone]",Skin-color brightness (ΔL*),human skin,1.90 ± 0.13
same,Melanin production inhibition,[1],41.1%
"Cc1cc2nc3c(=O)[nH]c(=O)nc-3n(C[C@H](O)[C@H](O)[C@H](O)CO)c2cc1C [Positive control group, riboflavin]",Conversion: radioactivity in the DHT region/total radioactivity,"5-alpha-reductase; 37° C., 30 minutes",28.7%
same,Inhibition of 5-alpha-reductase,5-alpha-reductase; vs conversion of control group,32.4%
CC1=C(/C=C/C(C)=C/C=C/C(C)=C/C(=O)O)C(C)(C)CCC1 [retinoic acid],Inhibition of lipogenesis,[2],52%
vitamin E,Inhibition of oxidative damage to DNA,Human normal fibroblasts,38.9%
same,Tail length,Human normal fibroblasts,70.6 μm

# Reference: patent publication US8877264B2, “Composition of skin external application containing ginseng berry extracts” (Amorepacific Corporation, priority 2007, dated 2014)
